Experimental findings from US8106055B2, “Substituted amide compounds” (Gruenenthal GmbH, priority 2007, dated 2012) are described below.

Test [1] deals with T1, human bradykinin 1 receptor (B1R) (Homo sapiens, UniProt P46663).
T1 construct: expressed in transfected cells; host or cells: CHO K1 cells
T1 sequence (P46663 1-353): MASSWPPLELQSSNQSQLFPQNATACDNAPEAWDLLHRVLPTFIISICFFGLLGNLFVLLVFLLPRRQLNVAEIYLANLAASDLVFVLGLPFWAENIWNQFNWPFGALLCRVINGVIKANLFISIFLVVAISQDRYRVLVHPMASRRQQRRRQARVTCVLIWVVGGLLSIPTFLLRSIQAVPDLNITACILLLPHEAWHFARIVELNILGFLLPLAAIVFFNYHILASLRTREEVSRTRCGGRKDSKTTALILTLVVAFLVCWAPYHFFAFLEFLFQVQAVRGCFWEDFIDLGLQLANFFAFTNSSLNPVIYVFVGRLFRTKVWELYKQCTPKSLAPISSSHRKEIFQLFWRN
Description: Functional investigation on the human bradykinin 1 receptor (B1R), Ca2+ FLIPR assay in CHO K1 hB1R cells. The class given is cell-based. The following applies: test substance 10 μM, Ca2+ FLIPR, CHO K1 hB1R cells; for inhibition at 10 µM: CHO-K1, B1R antagonism human, read-out: B1R Ant. h [10 μM] % Inhibition. The method, boiled down: (§1)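 Cells were dye-loaded with Fluo-4 plus probenecid, then test substances added and Ca2+ influx compared with agonist control for % activation. After 10-20 min, EC80 agonist (Lys-Des-Arg9-bradykinin human; Des-Arg9-bradykinin rat) was applied; suppression gave % inhibition and IC50 values.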

Test [2] concerns the target T2, bradykinin 1 receptor (B1R) of the rat (Rattus norvegicus, UniProt P97583).
T2 construct: expressed in transfected cells; host or cells: CHO K1 cells
T2 sequence (P97583 1-337): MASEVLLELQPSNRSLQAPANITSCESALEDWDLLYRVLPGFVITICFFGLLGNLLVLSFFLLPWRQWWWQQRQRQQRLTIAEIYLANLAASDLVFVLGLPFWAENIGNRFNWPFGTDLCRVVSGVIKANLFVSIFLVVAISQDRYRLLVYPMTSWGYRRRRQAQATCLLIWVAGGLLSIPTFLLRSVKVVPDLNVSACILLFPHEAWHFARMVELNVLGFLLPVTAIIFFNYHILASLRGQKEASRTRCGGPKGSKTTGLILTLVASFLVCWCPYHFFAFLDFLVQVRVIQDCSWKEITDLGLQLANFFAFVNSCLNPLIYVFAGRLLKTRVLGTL
Nature of the test: Functional investigation on the rat bradykinin 1 receptor (B1R), Ca2+ FLIPR assay in CHO K1 rB1R cells. The format is cell-based. The following applies: test substance 10 μM, Ca2+ FLIPR, CHO K1 rB1R cells; for inhibition at 10 µM: CHO-K1, B1R antagonism rat, read-out: B1R Ant. r [10 μM] % Inhibition. In a few lines:
as §1

One may read the inhibition as the drop in the measured response relative to a control, in per cent. Consider `COc1ccc(S(=O)(=O)N2CCCC2COCC(=O)NCCC2CCC(C(c3cccs3)N(C)C)CC2)cc1` (stereo not shown) [Example 77, N-(2-(4-((dimethylamino)(thiophen-2-yl)methyl)cyclohexyl)ethyl)-2-((1-(4-methoxyphenylsulfonyl)pyrrolidin-2-yl)methoxy)acetamide], for which the figures for the inhibition at 10 µM in test [1] and in test [2] were 41% and 44%, respectively.

As for `CN(C)C(c1ccccc1)C1CCC(CNC(=O)COC2CCCCC2N(C)S(=O)(=O)c2ccc(Cl)c(Cl)c2)CC1` (stereo not shown) [Example 78, 2-(2-(3,4-dichloro-N-methylphenylsulfonamido)cyclohexyloxy)-N-((4-((dimethylamino)(phenyl)methyl)cyclohexyl)methyl)acetamide], the inhibition at 10 µM turned out to be 51% in test [1] and 2% in test [2].

For `COc1cc(C)c(S(=O)(=O)N(C)CCOCC(=O)NC2CCC(C(c3ccccc3)N(C)C)CC2)c(C)c1C` (stereo not shown) [Example 80, N-(4-((dimethylamino) (phenyl)methyl)cyclohexyl)-2-(2-(4-methoxy-N,2,3,6-tetramethylphenylsulfonamido)ethoxy)acetamide], the “B1R Ant. h [10 μM] % Inhibition” value in test [1] (B1R antagonism human) is given as 98%. Moreover, the “B1R Ant. r [10 μM] % Inhibition” value in test [2] (B1R antagonism rat) was 6%.

Turning to `CN(C)C(c1ccccc1)C1CCC(CNC(=O)COC2CCN(S(=O)(=O)c3ccc(Cl)cc3)C2)CC1` (stereo not shown) [Example 81, 2-(1-(4-chlorophenylsulfonyl)pyrrolidin-3-yloxy)-N-((4-((dimethylamino)(phenyl)methyl)cyclohexyl)methyl)acetamide], the inhibition at 10 µM is -10% in test [1] and 5% in test [2].

For the compound `Cc1ccc(S(=O)(=O)N(C)CCOCC(=O)NCCC2CCC(C(c3cccs3)N(C)C)CC2)cc1` (stereo not shown) [Example 82, N-(2-(4-((dimethylamino)(thiophen-2-yl)methyl)cyclohexyl)ethyl)-2-(2-(N,4-dimethylphenylsulfonamido)ethoxy)acetamide], the inhibition at 10 µM is -2% in test [1] and -1% in test [2].

For the compound `CN(C)C(c1cccs1)C1CCC(NC(=O)COCCN(C)S(=O)(=O)c2ccc(Cl)cc2)CC1` (stereo not shown) [Example 83, 2-(2-(4-chloro-N-methylphenylsulfonamido)ethoxy)-N-(4-((dimethylamino) (thiophen-2-yl)methyl)cyclohexyl)acetamide], the inhibition at 10 µM in test [1] stood at 7%; in test [2], 11%.

With `COc1cc(C)c(S(=O)(=O)N(C)CCOCC(=O)NCCC2CCC(C(c3cccs3)N(C)C)CC2)c(C)c1` (stereo not shown) [Example 84, N-(2-(4-((dimethylamino)(thiophen-2-yl)methyl)cyclohexyl)ethyl)-2-(2-(4-methoxy-N,2,6-trimethylphenylsulfonamido)ethoxy)acetamide], the inhibition at 10 µM in test [1] came out at 104%; in test [2], 103%.

Turning to `CN(C)C(c1cccs1)C1CCC(CCNC(=O)COCCN(C)S(=O)(=O)c2ccc(F)cc2)CC1` (stereo not shown) [Example 85, N-(2-(4-((dimethylamino)(thiophen-2-yl)methyl)cyclohexyl)ethyl)-2-(2-(4-fluoro-N-methylphenylsulfonamido)ethoxy)acetamide], the results for the inhibition at 10 µM in test [1] and in test [2] were 7% and 12%, respectively.

Take `COc1cc(C)c(S(=O)(=O)N2CCC(OCC(=O)NCC3CCC(C(c4cccs4)N(C)C)CC3)C2)c(C)c1` (stereo not shown) [Example 86, N-((4-((dimethylamino)(thiophen-2-yl)methyl)cyclohexyl)methyl)-2-(1-(4-methoxy-2,6-dimethylphenylsulfonyl)pyrrolidin-3-yloxy)acetamide]: the inhibition at 10 µM stood at 98% in test [1] and 100% in test [2].

For the compound `CN(C)C(c1cccc(F)c1)C1CCC(CNC(=O)COCC2CCCCN2S(=O)(=O)c2ccc(Cl)c(Cl)c2)CC1` (stereo not shown) [Example 87, 2-((1-(3,4-dichlorophenylsulfonyl)piperidin-2-yl)methoxy)-N-((4-((dimethylamino)(3-fluorophenyl)methyl)cyclohexyl)methyl)acetamide], the values for the inhibition at 10 µM in test [1] and in test [2] were 57% and 9%, respectively.

For the compound `COc1ccc(S(=O)(=O)N2CCCCC2COCC(=O)NCC2CCC(C(c3ccccc3)N(C)C)CC2)cc1` (stereo not shown) [Example 88, N-((4-((dimethylamino)(phenyl)methyl)cyclohexyl)methyl)-2-((1-(4-methoxyphenylsulfonyl)piperidin-2-yl)methoxy)acetamide], the inhibition at 10 µM was determined as 80% in test [1] and 68% in test [2].

Turning to `COc1ccc(S(=O)(=O)N2CCCCC2CCOCC(=O)NCC2CCC(C(c3ccccc3)N(C)C)CC2)cc1` (stereo not shown) [Example 89, N-((4-((dimethylamino)(phenyl)methyl)cyclohexyl)methyl)-2-(2-(1-(4-methoxyphenylsulfonyl)piperidin-2-yl)ethoxy)acetamide], the inhibition at 10 µM in test [1] was found to be 42%; in test [2], 50%.

Consider `COc1ccc(S(=O)(=O)N2CCCCC2CCOCC(=O)NCC2CCC(C(c3cccs3)N(C)C)CC2)cc1` (stereo not shown) [Example 90, N-((4-((dimethylamino)(thiophen-2-yl)methyl)cyclohexyl)methyl)-2-(2-(1-(4-methoxyphenylsulfonyl)piperidin-2-yl)ethoxy)acetamide], for which the inhibition at 10 µM was 49% in test [1] and 37% in test [2].

Turning to `CN(C)C(c1ccccc1)C1CCC(CNC(=O)COCCN(C)S(=O)(=O)c2cccc(C(F)(F)F)c2)CC1` (stereo not shown) [Example 91, N-((4-((dimethylamino)(phenyl)methyl)cyclohexyl)methyl)-2-(2-(N-methyl-3-(trifluoromethyl)phenylsulfonamido)ethoxy)acetamide], the inhibition at 10 µM in test [1] was found to be 42%; in test [2] it was 34%.

Take `CN(C)C(c1cccs1)C1CCC(CNC(=O)COCCN(C)S(=O)(=O)c2cccc(C(F)(F)F)c2)CC1` (stereo not shown) [Example 92, N-((4-((dimethylamino)(thiophen-2-yl)methyl)cyclohexyl)methyl)-2-(2-(N-methyl-3-(trifluoromethyl)phenylsulfonamido)ethoxy)acetamide]: the inhibition at 10 µM amounted to 31% in test [1] and 1% in test [2].

As to `CN(C)C(c1cccs1)C1CCC(CNC(=O)COCCN(C)S(=O)(=O)c2ccc(OC(F)(F)F)cc2)CC1` (stereo not shown) [Example 93, N-((4-((dimethylamino)(thiophen-2-yl)methyl)cyclohexyl)methyl)-2-(2-(N-methyl-4-(trifluoromethoxy)phenylsulfonamido)ethoxy)acetamide], the inhibition at 10 µM is -2% in test [1] and 6% in test [2].

For the compound `COc1ccc(S(=O)(=O)N2CCC(OCC(=O)NCCC3CCC(C(c4cccs4)N(C)C)CC3)C2)cc1OC` (stereo not shown) [Example 94, 2-(1-(3,4-dimethoxyphenylsulfonyl)pyrrolidin-3-yloxy)-N-(2-(4-((dimethylamino)(thiophen-2-yl)methyl)cyclohexyl)ethyl)acetamide], the inhibition at 10 µM was -5% in test [1] and 21% in test [2].
